What is called IC50 is the concentration at which inhibition is half-maximal.

Where only a bound is given, the exact number is not on record here.

Results on 5 compounds are retold here after ChEMBL document CHEMBL1127110, “Novel polyamide inducers of HL-60 cellular differentiation” (Bioorg Med Chem Lett, 1993).

In the test the test system is HL-60. The experiment in a line: The compound was evaluated in vitro for cytotoxicity against HL-60 cell lines. Format: functional, cell-based. To be noted: Homo sapiens.
For `CC(=O)NCCC(=O)NCCNC(=O)CCNC(C)=O`, the IC50 is 6 mM.
`CC(=O)NCCNC(=O)CCNC(C)=O` showed an IC50 greater than 16 mM.
As for `CC(=O)NCCCN(CCCCN(CCCNC(C)=O)C(C)=O)C(C)=O`, the figure is greater than 16 mM.
For `CC(=O)NCCCCCCNC(C)=O` [HEXAMETHYLENEBISACETAMIDE] the value was 4 mM; for `CC(=O)NCCCCN(CCCNC(C)=O)C(C)=O`, greater than 16 mM.
